Results: PubChem BioAssay (NCI)
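Growth conditions: 96-well plates. Treatment: test compound, 48 hours, 5 concentrations. Analysis: linear interpolation between bracketing concentrations; unreached endpoints set to highest concentration. GI50 = concentration required for 50% inhibition of growth. TGI marks complete inhibition of growth.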 Where a SMILES comes first, the peptide text is derived from it. [ ]: non-standard residue; d: D form. Ac5c = NC1(C(=O)O)CCCC1

Legend:
Experiment in all cases: DTP human tumour cell line panel, 48 h
786-0 renal = system: 786-0 renal
EKVX NSCLC = system: EKVX NSCLC
HCT-116 colon = system: HCT-116 colon
HOP-62 NSCLC = system: HOP-62 NSCLC
M14 melanoma = system: M14 melanoma
NCI/ADR-RES ovarian = system: NCI/ADR-RES ovarian
PC-3 prostate = system: PC-3 prostate
SF-539 CNS = system: SF-539 CNS
SN12C renal = system: SN12C renal
UACC-257 melanoma = system: UACC-257 melanoma

Row | Compound | GI50 (786-0 renal) | TGI (786-0 renal) | GI50 (EKVX NSCLC) | TGI (EKVX NSCLC) | GI50 (HCT-116 colon) | TGI (HCT-116 colon) | GI50 (HOP-62 NSCLC) | TGI (HOP-62 NSCLC) | GI50 (M14 melanoma) | TGI (M14 melanoma) | GI50 (NCI/ADR-RES ovarian) | TGI (NCI/ADR-RES ovarian) | GI50 (PC-3 prostate) | TGI (PC-3 prostate) | GI50 (SF-539 CNS) | TGI (SF-539 CNS) | GI50 (SN12C renal) | TGI (SN12C renal) | GI50 (UACC-257 melanoma) | TGI (UACC-257 melanoma)
1 | Cc1ccccc1NC(=O)N/C(N)=N/c1nc(-c2cccc([N+](=O)[O-])c2)cs1 | 2.21 µM | 4.55 µM | 1.94 µM | > 100 µM | 1.58 µM | 3.18 µM | 1.92 µM | 7.47 µM | 2.15 µM | 19.6 µM | 1.82 µM | 7.22 µM | 2.66 µM | > 100 µM | 1.65 µM | 3.21 µM | 3.37 µM | 30.5 µM | 4.85 µM | > 100 µM
2 | NC1(C(=O)NC2(C(=O)O)CCCC2)CCCC1 (H-[Ac5c]-[Ac5c]-OH) |  | > 100 µM |  | > 100 µM |  | > 100 µM |  | > 100 µM |  | > 100 µM |  | > 100 µM |  | > 100 µM |  | > 100 µM |  | > 100 µM |  | > 100 µM
3 | COc1cc(/C=C/C(=O)CC(=O)/C=C/c2cc(OC)c(OC)c(OC)c2)cc(OC)c1OC | 4.05 µM | 17.6 µM | 3.59 µM | 40.9 µM | 1.71 µM | 4.26 µM | 4.45 µM | 27.7 µM | 3.9 µM | 40 µM | 4.18 µM | > 100 µM | 3.02 µM | > 100 µM | 4.85 µM | 71.8 µM | 3.59 µM | 37 µM | 3.23 µM | 31.1 µM
4 | COc1cc(OC)cc(C2CC(=O)Nc3c2c(C)nn3-c2nc3ccccc3[nH]2)c1 (centres undefined) | 2.84 µM | 9.89 µM | 3.31 µM | > 100 µM | 1.97 µM | 4.16 µM | 2.65 µM | 6.62 µM | 2.46 µM | 7.27 µM | 4.47 µM | > 100 µM | 3.09 µM | 41.7 µM | 2.96 µM | 9.43 µM | 3.46 µM | > 100 µM | 2.64 µM | 7.32 µM
5 | Nc1c(C(=O)c2ccc(Cl)cc2)sc(Nc2ccccc2)c1-c1nc2ccccc2s1 | 2.8 µM | 8.18 µM | 2 µM | > 100 µM | 5.04 µM | > 100 µM | 3.71 µM | 65.8 µM | 2.65 µM | > 100 µM | 3.34 µM | > 100 µM | 2.35 µM | > 100 µM | 2.63 µM | > 100 µM | > 20.2 µM | > 100 µM | > 100 µM | > 100 µM
6 | CC(=O)Nc1ccc(C(=O)NN2C(=O)C(Cl)C2c2ccc(Cl)cc2)cc1 (centres undefined) |  | 40.3 µM |  | > 100 µM |  | > 100 µM |  | 57.8 µM |  | > 100 µM |  | > 100 µM |  | > 100 µM |  | > 54.2 µM |  | > 100 µM |  | > 100 µM
7 | O=S(=O)(NC1=NCCN1C(=S)SN1CCn2c1nsc2=S)c1ccc(Br)cc1 | 31 µM | > 100 µM | 2.39 µM | 95.1 µM | 24.7 µM | 73.2 µM | 52.4 µM | > 100 µM | 68.8 µM | > 100 µM | > 100 µM | > 100 µM | 30.8 µM | > 100 µM | 18.6 µM | 38.9 µM | 31.6 µM | > 100 µM | 46.6 µM | > 100 µM
8 | C=CCC(N[C@H](CO)c1ccccc1)c1ccc2ccccc2n1 (some centres undefined) | > 100 µM | > 100 µM | > 100 µM | > 100 µM | > 100 µM | > 100 µM | > 100 µM | > 100 µM | > 100 µM | > 100 µM | > 100 µM | > 100 µM | > 100 µM | > 100 µM | > 100 µM | > 100 µM | > 100 µM | > 100 µM | > 100 µM | > 100 µM
9 | CC(=O)CC(=O)Nc1ccc2ccccc2c1 |  | > 100 µM |  | > 100 µM |  | > 100 µM |  | > 100 µM |  | > 100 µM |  | > 100 µM |  | > 100 µM |  | > 100 µM |  | > 100 µM |  | > 100 µM
10 | O=[N+]([O-])c1cc(Cl)c(Cl)c([N+](=O)[O-])c1Cl | 1.88 µM | 3.43 µM | 2.23 µM | 5.32 µM | 0.624 µM | 2.12 µM | 1.82 µM | 3.25 µM | 0.642 µM | 2.23 µM | 1.91 µM | 3.75 µM | 1.81 µM | 3.57 µM | 2.53 µM | 6.94 µM |  |  | 1.56 µM | 3.08 µM
11 | Cn1c([N+](=O)[O-])cnc1/C=C1\Oc2ccccc2C1=O | 0.203 µM | 3.67 µM |  |  | 0.187 µM | 1.06 µM | 1.07 µM | 4.42 µM | 0.32 µM | 2.51 µM | 0.392 µM | 4.45 µM | 1.46 µM | > 22.7 µM | 1.78 µM | 4.74 µM | 0.593 µM | 2.87 µM | 0.682 µM | 2.84 µM
12 | CC[C@H](NC(=O)[C@H](C)NC)C(=O)N1C[C@@H](O)C[C@H]1Cc1c(-c2[nH]c3cc(F)ccc3c2C[C@@H]2C[C@H](O)CN2C(=O)[C@H](CC)NC(=O)[C@H](C)NC)[nH]c2cc(F)ccc12 | > 100 µM | > 100 µM |  |  | > 100 µM | > 100 µM | 27.5 µM | > 100 µM | > 100 µM | > 100 µM | > 100 µM | > 100 µM | > 100 µM | > 100 µM | < 0.01 µM | 0.146 µM | > 100 µM | > 100 µM | 0.0431 µM | > 100 µM
13 | CCN(CC)CCC(=O)NC1c2ccc(Cl)cc2Oc2c(C)cccc21 (centres undefined) |  | 25.2 µM |  | 36.9 µM |  | 30.2 µM |  |  |  | 31.3 µM |  | 39 µM |  | 26.7 µM |  | 27.7 µM |  | 35.5 µM |  | 31.6 µM
14 | CC(C)(C#N)c1cc(Cn2cncn2)cc(C(C)(C)C#N)c1 | 892 µM | > 10000 µM | 400 µM | > 10000 µM |  |  | 921 µM | > 10000 µM |  |  | 477 µM | > 10000 µM | 792 µM | > 10000 µM | 2450 µM | > 10000 µM | > 10000 µM | > 10000 µM | > 10000 µM | > 10000 µM
